Measurements published in ChEMBL document CHEMBL4651402, “Screening of ~5500 FDA-approved drugs and clinical candidates for anti-SARS-CoV-2 activity” (2021).

System: SARS-CoV-2
Assay: microbe, parasite or virus in culture
Settings: Severe acute respiratory syndrome coronavirus 2, Vero C1008, 48 h

SMILES | IC50 | IC50 (read-out: pIC50 (converted))
CC(C)CC(NC(=O)C(Cc1ccccc1)NC(=O)CNC(=O)C(C)NC(=O)C(N)Cc1ccc(O)cc1)C(=O)O (stereo not given) | > 20 µM | > 20 µM
CCCC(=O)OCOC(=O)C(C)(C)C [AN-9] | > 20 µM | > 20 µM
NC(=O)c1nnn(Cc2cc(Cl)c(C(=O)c3ccc(Cl)cc3)c(Cl)c2)c1N [CARBOXYAMIDOTRIAZOLE] | > 20 µM | > 20 µM
Cc1cccc(C)c1NC(=O)c1ccccc1C(=O)O [FTAXILIDE] | > 20 µM | > 20 µM
COc1c(C)cnc(Cn2cnc3c(Cl)nc(N)nc32)c1C [BIIB021] | > 20 µM | > 20 µM
Cc1c(N(C)C)c(=O)n(-c2ccccc2)n1C [AMINOPYRINE] | > 20 µM | > 20 µM
C[C@]12C[C@H]3S[C@H]3C[C@@H]1CC[C@@H]1[C@@H]2CC[C@]2(C)[C@@H](O)CC[C@@H]12 [EPITIOSTANOL] | > 20 µM | > 20 µM
O=[N+]([O-])/C(Br)=C\c1ccc(Br)o1 | > 20 µM | > 20 µM
O=C1NCCN1CCN1CCN([C@@H]2C[C@@H](c3ccc(F)cc3)c3ccccc32)CC1 [IRINDALONE] | > 20 µM | > 20 µM
C=C(C)[C@@H]1[C@H]2OC(=O)[C@H]1[C@]1(O)C[C@H]3O[C@]34C(=O)O[C@H]2[C@]14C | > 20 µM | > 20 µM
C[C@H]([C@@H](N)C(=O)N[C@@H](C(=O)O)[C@@H]1O[C@H](n2ccc(=O)[nH]c2=O)[C@@H](O)[C@H]1O)[C@@H](O)c1ccc(O)cn1 | > 20 µM | > 20 µM
COc1ccc(S(=O)(=O)Nc2cccnc2Nc2ccc(O)cc2)cc1 [ABT-751] | > 20 µM | > 20 µM
Cc1onc(-c2c(Cl)cccc2Cl)c1C(=O)N[C@@H]1C(=O)N2[C@@H]1SC(C)(C)[C@@H]2C(=O)O [DICLOXACILLIN] | > 20 µM | > 20 µM
CC(C)CN(C[C@@H](O)[C@H](Cc1ccccc1)NC(=O)O[C@H]1CCOC1)S(=O)(=O)c1ccc(N)cc1 | > 20 µM | > 20 µM
CCC1(CCC(C)C)C(=O)NC(=O)NC1=O [AMOBARBITAL] | > 20 µM | > 20 µM
C#CCN[C@@H]1CCc2ccccc21 [RASAGILINE] | > 20 µM | > 20 µM
COc1cc(N2CCC(N(C)C)CC2)ccc1Nc1ncc(Cl)c(Nc2ccccc2P(C)(C)=O)n1 | > 20 µM | > 20 µM
CN(C)CCc1ccc(O)cc1 [HORDENINE] | > 20 µM | > 20 µM
NCc1ccc(S(N)(=O)=O)cc1 [MAFENIDE] | > 20 µM | > 20 µM
Cc1cn(-c2cc(NC(=O)c3ccc(C)c(Nc4nccc(-c5cccnc5)n4)c3)cc(C(F)(F)F)c2)cn1 [NILOTINIB] | > 20 µM | > 20 µM
COc1ccc(C(=O)Nc2c(Cl)cncc2Cl)cc1OC1CCCC1 | > 20 µM | > 20 µM
O=C(c1cc(Cc2n[nH]c(=O)c3ccccc23)ccc1F)N1CCN(C(=O)C2CC2)CC1 [OLAPARIB] | > 20 µM | > 20 µM
COc1cc(=O)n(C)c2c(OCC(O)C(C)(C)O)cccc12 (stereo not given) | > 20 µM | > 20 µM
N[C@@]1(C(=O)O)CS(=O)(=O)[C@H]2[C@H](C(=O)O)[C@H]21 [LY404039] | > 20 µM | > 20 µM
OC[C@H]1O[C@@](CO)(O[C@H]2O[C@H](CO)[C@@H](O)[C@H](O)[C@H]2O)[C@@H](O)[C@@H]1O [SUCROSE] | > 20 µM | > 20 µM
Oc1c(Cl)cc(Cl)c(Cl)c1Cc1c(O)c(Cl)cc(Cl)c1Cl [HEXACHLOROPHENE] | > 20 µM | > 20 µM
OCc1cc2c(cn1)[nH]c1ccccc12 | > 20 µM | > 20 µM
COC(=O)Nc1nc2cc([S+]([O-])c3ccccc3)ccc2[nH]1 (stereo not given) [OXFENDAZOLE] | > 20 µM | > 20 µM
O=C(CCCN1CCC(C(=O)c2ccc(F)cc2)CC1)c1ccc(F)cc1 [LENPERONE] | > 20 µM | > 20 µM
CC(=O)OC1CC2CCC1(C)C2(C)C (stereo not given) | > 20 µM | > 20 µM
